Experiment [1] relates to L1210 Murine leukemia cells. Description: In vitro growth inhibition of L1210 murine leukemia cells (Coulter Counter). The following applies: Mus musculus, 72 hours of continuous exposure. It counts as cell-based. The procedure:
The "in vitro" cytotoxic evaluation was also performed on L 1210 murine leukemia cells using the above mentioned cells maintained in suspension cultures (McCoy's 5A medium supplemented with 10% horse serum, glutamine, penicillin and streptomycin) grown in an humidified environment of 10% carbon dioxide and 90% air at 37°C. The compounds were dissolved in dimethylsulfoxide (DMSO) and added to the suspended cells in appropriate concentrations. After 72 hours of continuous exposure, the cell concentration was counted using a Coulter Counter and growth inhibition calculated using the formula: % growth inhibition = 1 - [cell number treated/cell number DMSO alone] x 100. [formula]
The IC50 was calculated from the growth inhibition data and they are reported in table VII in comparison to the prior art compound 5a (see table I for structure of 5a).
L1210 Murine leukemia cells were routinely maintained in suspension cultures in McCoy's 5A medium supplemented with 10% horse serum glutamine, penicillin and streptomycin and grown in a humidified environment of 10% carbon dioxide and 90% air at 37°C.
To assess the in vitro toxicity, each compound was dissolved in dimethylsulfoxide and added to 1 ml of L1210 cells (10^5 cells/tube) to attain final concentrations of 0.01, 0.1 and 1 µg of drug/ml of culture. After 72 hours of continues exposure to the drug, the cell concentration was determined with a Coulter Counter. Growth inhibition was calculated for each drug using the following formula: % growth inhibition = 1-[cell number treated/cell number DMSO alone] x 100. [formula]
The growth inhibition data was then used to calculate the IC50 value (the calculated drug concentration required to inhibit cell growth by 50% of control.

Another experiment concerns L1210 murine leukemia. The experiment can be described thus: In vivo L1210 murine leukemia (ip/ip, d 1, 5, 9), protocol a, 10^6 cells. Also on record: species or system BDF1 mice. The following applies: days 1, 5 and 9, ip; for %T/C: mean survival time; for LTS: tumor-free at 60 days. The procedure: L 1210 leukemia cells were intraperitoneally (ip) injected in CDFl mice and treatment was initiated approximately 24 hours after tumor transplantation. Dosages of the drugs were administered ip according to preestablished protocols, usually at 4-day intervals. The studies were done over a 60-day period and the date of death for each animal was recorded. The % T/C was determined using the mean survival time (MST) for each group according to the formula % T/C = [(MST treated)/(MST control)] x 100 [formula]
• a) L1210 murine leukemia cells were maintained in vivo by weekly intraperitoneal (ip) injections of 10^6 cells in BDF1 mice. For test purposes, mice were inoculated i.p. with 10^6 L1210 cells and treatment was initiated 24 hours later. The desired dose of drug was administered on days 1, 5 and 9. Mice were observed daily for signs of toxicity and survival. The date of death was recorded for each animal that died or was sacrificed during the 60-day study. The mean survival time (MST) for each treatment group was calculated and the % T/C was determined using the following formula: % T/C = [(MST treated)/(MST control)] x 100 [formula] The results are reported in table X • b) L1210 murine leukemia cells were maintained in vivo by weekly intraperitoneal (ip) injections of 10^5 cells in DBA2 mice. For test purposes, CDF1 mice were inoculated i.p. with 10^5 L1210 cells and treatment was initiated 24 hours later. The desired dose of drug was administered on days 1, 5 and 9. Mice were observed daily for signs of toxicity and survival. The date of death was recorded for each animal that died or was sacrificed during the 60-day study. The median survival time (MST) for each treatment group was calculated and the % T/C was determined using the following formula: % T/C = [(MST treated)/(MST control)] x 100 [formula]

Converted amounts (≈) assume the structure as drawn.

Take `O=C1c2ccncc2C(=O)c2c(NCCN3CC3)ccc(NCCN3CC3)c21` [Compound 10f, 6,9-Bis{[2-(1'-aziridino)ethyl]amino}benzo[g]isoquinoline-5,10-dione]: in experiment [1], the IC50 was found to be 0.002 µg/mL (≈ 5.3 nM).
Take `O=C1c2ccncc2C(=O)c2c(NCCNCCO)ccc(NCCNCCO)c21` [Compound 10l.maleate, 6,9-bis{[2-(2-hydroxyethylamino)ethyl]amino}benzo[g]isoquinoline-5,10-dione]: the “%T/C” value in the experiment on L1210 murine leukemia (Dose 12.5 mg/kg) is reported as 313%; in the experiment on L1210 murine leukemia (Dose 25 mg/kg) it was 415%. The LTS is 2/6 in the experiment with L1210 murine leukemia (Dose 12.5 mg/kg) and 1/6 in the experiment on L1210 murine leukemia (Dose 25 mg/kg). The compound further registered an IC50 in experiment [1] of 0.06 µg/mL.
